Test results: patent US12559474B2, “Triazine derivatives having virus replication inhibitory activity and pharmaceutical composition comprising the same” (priority 2021, dated 2026)
Where two headings read alike, the source gives them in different places.

Columns and labels:
SARS-CoV-2 = test: microbe, parasite or virus in culture; assay type: cell-based; conditions: Severe acute respiratory syndrome coronavirus 2, VeroE6/TMPRSS2, 72 h, 50% SARS-CoV-2 infected cell death inhibitory concentration, VeroE6/TMPRSS2 cells, 3 days culture
SARS-CoV-2 3CL protease = SARS-CoV-2 3CL protease (Severe acute respiratory syndrome coronavirus 2, UniProt P0DTD1); test: biochemical; conditions: 50% SARS-CoV-2 3CL protease inhibitory concentration, read-out: IC50

## Cn1cnc(Cn2c(=O)nc(Nc3cc4cn(CCO)nc4cc3Cl)n(Cc3cc(F)c(F)c(F)c3)c2=O)n1 [Compound I-0432]
SARS-CoV-2; class symbols
  EC50: 1 to 10 µM
SARS-CoV-2 3CL protease; given as class symbols
  IC50: < 0.1 µM

## CCc1nc2cc(Cl)c(Nc3nc(=O)n(Cc4ncn(C)n4)c(=O)n3Cc3cc(Cl)c(F)cc3F)cc2s1 [II-0260]
SARS-CoV-2; class symbols
  EC50: < 1 µM
SARS-CoV-2 3CL protease; given as class symbols
  IC50: < 0.1 µM

## CCn1cc2cc(Nc3nc(=O)n(-c4cncc(C)c4)c(=O)n3Cc3ccc(F)c(C#N)c3)c(Cl)cc2n1 [II-0118]
SARS-CoV-2; CellTiter-Glo 2.0
  EC50: 0.121 µM
SARS-CoV-2 3CL protease; RapidFire MS
  IC50: 0.0045 µM

## Cc1cncc(-n2c(=O)nc(Nc3cc4cn(C)nc4cc3Cl)n(Cc3cc(C#N)c(F)cc3C)c2=O)c1 [II-0015]
SARS-CoV-2; CellTiter-Glo 2.0
  EC50: 0.035 µM
SARS-CoV-2 3CL protease; RapidFire MS
  IC50: 0.0015 µM

## COc1ccc(Nc2nc(=O)n(CC3CCNC3=O)c(=O)n2Cc2cc(F)c(F)c(F)c2)cc1 (racemic) [Compound I-0301]
SARS-CoV-2; class symbols
  EC50: < 1 µM
SARS-CoV-2 3CL protease; given as class symbols
  IC50: 1 to 10 µM
SARS-CoV-2 3CL protease; RapidFire MS
  IC50: 3.8 µM

## Cc1cncc(-n2c(=O)nc(Nc3cc4cn(C)nc4cc3Cl)n(Cc3ccc(F)c(C#N)c3)c2=O)c1 [Compound I-0383]
SARS-CoV-2; CellTiter-Glo 2.0
  EC50: 0.096 µM
SARS-CoV-2 3CL protease; RapidFire MS
  IC50: 0.0034 µM

## COc1ccc(Nc2nc(=O)n(-c3nncc4cnn(C)c34)c(=O)n2Cc2cc(F)c(F)c(F)c2)cc1 [II-0401]
SARS-CoV-2; CellTiter-Glo 2.0
  EC50: 2.33 µM
SARS-CoV-2 3CL protease; RapidFire MS
  IC50: 0.29 µM

## Cn1cnc(Cn2c(=O)nc(Nc3cc4cn(CC(C)(C)O)nc4cc3Cl)n(Cc3cc(Cl)c(F)cc3F)c2=O)n1 [II-0302]
SARS-CoV-2; class symbols
  EC50: 1 to 10 µM
SARS-CoV-2 3CL protease; given as class symbols
  IC50: < 0.1 µM

## Cc1cncc(-n2c(=O)nc(Nc3ccc4nn(CC(F)(F)F)cc4c3)n(Cc3cc(C#N)ccc3F)c2=O)c1 [II-0312]
SARS-CoV-2; class symbols
  EC50: < 1 µM
SARS-CoV-2 3CL protease; given as class symbols
  IC50: < 0.1 µM

## COc1ccc(Nc2nc(=O)n(-c3cccnc3)c(=O)n2Cc2cc(F)c(F)c(F)c2)cc1 [Compound I-0135]
SARS-CoV-2; class symbols
  EC50: 1 to 10 µM
SARS-CoV-2 3CL protease; given as class symbols
  IC50: 0.1 to 1 µM

## CNc1ccnc(Cn2c(=O)nc(Nc3cc4cn(C)nc4cc3Cl)n(Cc3cc(F)c(F)cc3F)c2=O)n1 [II-0253]
SARS-CoV-2; class symbols
  EC50: 1 to 10 µM
SARS-CoV-2 3CL protease; given as class symbols
  IC50: < 0.1 µM

## N#Cc1cc(Cn2c(Nc3cc4c(cc3Cl)OCC4)nc(=O)n(Cc3cc(F)c[nH]c3=O)c2=O)ccc1F [Compound I-0271]
SARS-CoV-2; class symbols
  EC50: 1 to 10 µM
SARS-CoV-2 3CL protease; given as class symbols
  IC50: < 0.1 µM

## O=c1[nH]cccc1Cn1c(=O)nc(Nc2cc3cn(CC(F)(F)F)nc3cc2Cl)n(Cc2cc(F)c(F)c(F)c2)c1=O [II-0505]
SARS-CoV-2; class symbols
  EC50: 1 to 10 µM
SARS-CoV-2 3CL protease; given as class symbols
  IC50: < 0.1 µM

## Cc1cncc(-n2c(=O)nc(Nc3ccc4c(c3)CCCO4)n(Cc3ccc(F)c(C#N)c3)c2=O)c1 [II-0166]
SARS-CoV-2; class symbols
  EC50: < 1 µM
SARS-CoV-2 3CL protease; given as class symbols
  IC50: < 0.1 µM

## Cc1cncc(-n2c(=O)nc(Nc3cc4sc(NC(C)C)nc4cc3Cl)n(Cc3ccc(F)c(C#N)c3)c2=O)c1 [II-0035]
SARS-CoV-2; class symbols
  EC50: < 1 µM
SARS-CoV-2 3CL protease; given as class symbols
  IC50: < 0.1 µM

## Cc1cncc(-n2c(=O)nc(Nc3ccc4nn(CC(F)F)cc4c3)n(Cc3cc(C#N)ccc3Cl)c2=O)c1 [II-0570]
SARS-CoV-2; CellTiter-Glo 2.0
  EC50: 0.6 µM
SARS-CoV-2 3CL protease; RapidFire MS
  IC50: 0.0044 µM

## CNc1nc2ccc(Nc3nc(=O)n(Cc4cc(Cl)c[nH]c4=O)c(=O)n3Cc3cc(F)c(F)c(F)c3)cc2s1 [II-0041]
SARS-CoV-2; class symbols
  EC50: 1 to 10 µM
SARS-CoV-2 3CL protease; given as class symbols
  IC50: < 0.1 µM

## Cn1cnc(Cn2c(=O)cc(Nc3cc4cn(C(F)F)nc4cc3Cl)n(Cc3cc(F)c(F)c(F)c3)c2=O)n1 [II-0431]
SARS-CoV-2; class symbols
  EC50: < 1 µM
SARS-CoV-2 3CL protease; given as class symbols
  IC50: < 0.1 µM

## CC(C)(C)OC(=O)Nc1nc2cc(Cl)c(Nc3nc(=O)n(Cc4ccc[nH]c4=O)c(=O)n3Cc3cc(F)c(F)c(F)c3)cc2s1 [Compound I-0466]
SARS-CoV-2; class symbols
  EC50: < 1 µM
SARS-CoV-2 3CL protease; given as class symbols
  IC50: < 0.1 µM

## CNc1nc2cc(Cl)c(Nc3nc(=O)n(Cc4ncn(C)n4)c(=O)n3Cc3cc(Cl)c(F)cc3F)cc2o1 [II-0104]
SARS-CoV-2; class symbols
  EC50: 1 to 10 µM
SARS-CoV-2 3CL protease; given as class symbols
  IC50: < 0.1 µM

## CCn1cc2cc(Nc3nc(=O)n(Cc4ncn(C)n4)c(=O)n3Cc3cc(F)c(F)cc3F)c(Cl)cc2n1 [II-0548]
SARS-CoV-2; CellTiter-Glo 2.0
  EC50: 0.533 µM
SARS-CoV-2 3CL protease; RapidFire MS
  IC50: 0.014 µM

## Cc1cncc(-n2c(=O)nc(Nc3cc4c(cc3Cl)nc3n4CCN3)n(Cc3cc(Cl)c(F)cc3F)c2=O)c1 [II-0279]
SARS-CoV-2; class symbols
  EC50: 1 to 10 µM
SARS-CoV-2 3CL protease; given as class symbols
  IC50: < 0.1 µM

## Cn1cc2cc(Nc3nc(=O)n(Cc4ccc[nH]c4=O)c(=O)n3Cc3ccc(F)c(C#N)c3)c(Cl)cc2n1 [Compound I-0267]
SARS-CoV-2; class symbols
  EC50: 1 to 10 µM
SARS-CoV-2 3CL protease; given as class symbols
  IC50: < 0.1 µM

## N#Cc1cc(Cn2c(Nc3ccc4c(c3)CCO4)nc(=O)n(-c3cncc4ccccc34)c2=O)ccc1F [Compound I-0351]
SARS-CoV-2; CellTiter-Glo 2.0
  EC50: 0.0747 µM
SARS-CoV-2 3CL protease; RapidFire MS
  IC50: 0.0043 µM

## Cn1cc2cc(Nc3nc(=O)n(Cc4cn(C)c(=O)[nH]c4=O)c(=O)n3Cc3cc(F)c(F)c(F)c3)c(Cl)cc2n1 [Compound I-0111]
SARS-CoV-2; class symbols
  EC50: 1 to 10 µM
SARS-CoV-2 3CL protease; given as class symbols
  IC50: < 0.1 µM

## N#Cc1cc(Cn2c(Nc3cc4c(cc3Cl)OCC4)nc(=O)n(Cc3ccc[nH]c3=O)c2=O)cc(F)c1F [Compound I-0011]
SARS-CoV-2; class symbols
  EC50: < 1 µM
SARS-CoV-2 3CL protease; given as class symbols
  IC50: < 0.1 µM

## Cn1cnc(Cn2c(=O)nc(Nc3cc4cn(C)nc4cc3Cl)n(Cc3cccc(F)c3F)c2=O)n1 [II-0217]
SARS-CoV-2; class symbols
  EC50: 1 to 10 µM
SARS-CoV-2 3CL protease; given as class symbols
  IC50: < 0.1 µM

## Cn1cc2cc(Nc3nc(=O)n(Cc4ccc[nH]c4=O)c(=O)n3Cc3cc(F)cc(Cl)c3)c(Cl)cc2n1 [Compound I-0008]
SARS-CoV-2; class symbols
  EC50: 1 to 10 µM
SARS-CoV-2 3CL protease; given as class symbols
  IC50: < 0.1 µM

## Cc1cc2nn(C)cc2cc1Nc1nc(=O)n(-c2cccc3cnccc23)c(=O)n1Cc1cc(F)c(F)c(F)c1 [Compound I-0369]
SARS-CoV-2; class symbols
  EC50: 1 to 10 µM
SARS-CoV-2 3CL protease; given as class symbols
  IC50: < 0.1 µM

## C[C@H](O)Cn1cc2cc(Nc3nc(=O)n(Cc4cc(Cl)c[nH]c4=O)c(=O)n3Cc3cc(F)c(F)c(F)c3)c(Cl)cc2n1 [Compound I-0402]
SARS-CoV-2; class symbols
  EC50: 1 to 10 µM
SARS-CoV-2 3CL protease; given as class symbols
  IC50: < 0.1 µM

## Cc1cncc(-n2c(=O)nc(Nc3cc4cn(C)nc4cc3F)n(Cc3cc(C#N)c(F)cc3C)c2=O)c1 [II-0504]
SARS-CoV-2; class symbols
  EC50: < 1 µM
SARS-CoV-2 3CL protease; given as class symbols
  IC50: < 0.1 µM

## Cn1cnc(Cn2c(=O)nc(Nc3cc4cn(CCO)nc4cc3Cl)n(Cc3cc(F)c(F)c(Cl)c3)c2=O)n1 [II-0307]
SARS-CoV-2; class symbols
  EC50: 1 to 10 µM
SARS-CoV-2 3CL protease; given as class symbols
  IC50: < 0.1 µM

## COc1nc2cc(Cl)c(Nc3nc(=O)n(Cc4ccc[nH]c4=O)c(=O)n3Cc3cc(F)c(F)c(F)c3)cc2s1 [II-0418]
SARS-CoV-2; CellTiter-Glo 2.0
  EC50: 6.24 µM
SARS-CoV-2 3CL protease; RapidFire MS
  IC50: 0.11 µM

## COc1ccc(Nc2nc(=O)n(-c3cncc4ccccc34)c(=O)n2Cc2cc(F)c(F)c(C#N)c2)cc1 [Compound I-0480]
SARS-CoV-2; CellTiter-Glo 2.0
  EC50: 0.0726 µM
SARS-CoV-2 3CL protease; RapidFire MS
  IC50: 0.0065 µM

## Cn1cnc(Cn2c(=O)nc(Nc3cc4cn(C)nc4cc3Cl)n(Cc3ccc(F)c(F)c3F)c2=O)n1 [II-0190]
SARS-CoV-2; class symbols
  EC50: 1 to 10 µM
SARS-CoV-2 3CL protease; given as class symbols
  IC50: < 0.1 µM

## Cn1cc2cc(Nc3nc(=O)n(Cc4ncccn4)c(=O)n3Cc3cc(Cl)c(F)cc3F)c(Cl)cc2n1 [II-0242]
SARS-CoV-2; class symbols
  EC50: < 1 µM
SARS-CoV-2 3CL protease; given as class symbols
  IC50: < 0.1 µM

## CNc1nc2ccc(Nc3nc(=O)n(-c4cncc(C)c4)c(=O)n3Cc3cc(C#N)c(F)cc3Cl)cc2s1 [II-0421]
SARS-CoV-2; class symbols
  EC50: < 1 µM
SARS-CoV-2 3CL protease; given as class symbols
  IC50: < 0.1 µM

## Cc1cncc(-n2c(=O)nc(Nc3cc4sc(NCC(F)F)nc4cc3F)n(Cc3cc(F)c(F)c(C#N)c3)c2=O)c1 [II-0423]
SARS-CoV-2; class symbols
  EC50: 1 to 10 µM
SARS-CoV-2 3CL protease; given as class symbols
  IC50: < 0.1 µM

## Cc1cncc(-n2c(=O)nc(Nc3cc4cn(C)nc4cc3F)n(Cc3cc(C#N)ccc3Cl)c2=O)c1 [II-0364]
SARS-CoV-2; class symbols
  EC50: < 1 µM
SARS-CoV-2 3CL protease; given as class symbols
  IC50: < 0.1 µM

## CNc1nc2cc(F)c(Nc3nc(=O)n(-c4cncc(C)c4)c(=O)n3Cc3cc(F)c(F)c(F)c3)cc2s1 [II-0291]
SARS-CoV-2; class symbols
  EC50: 1 to 10 µM
SARS-CoV-2 3CL protease; given as class symbols
  IC50: < 0.1 µM

## Cn1cnc(Cn2c(=O)nc(Nc3cc4cn(CC(F)F)nc4cc3Cl)n(Cc3cc(F)c(F)cc3F)c2=O)n1 [II-0163]
SARS-CoV-2; CellTiter-Glo 2.0
  EC50: 0.342 µM
SARS-CoV-2 3CL protease; RapidFire MS
  IC50: 0.0088 µM

## Cc1cc(F)c(C#N)cc1Cn1c(Nc2ccc3nn(C)cc3c2)nc(=O)n(-c2cncc(Cl)c2)c1=O [II-0571]
SARS-CoV-2; CellTiter-Glo 2.0
  EC50: 0.19 µM
SARS-CoV-2 3CL protease; RapidFire MS
  IC50: 0.0054 µM

## Cc1cncc(-n2c(=O)nc(Nc3cc4cn(C)nc4cc3Cl)n(Cc3cc(Cl)c(F)c(Cl)c3)c2=O)c1 [II-0588]
SARS-CoV-2; class symbols
  EC50: < 1 µM
SARS-CoV-2 3CL protease; given as class symbols
  IC50: < 0.1 µM
